Key:
ENR+CD organoids = experiment: Primary screen: ATP (CellTiter-Glo 3D, CTG) cell number/viability, 2.5-D 384-well ENR+CD organoids; conditions: primary screen; for Z.CTG: standard z score; for Dose.FC.CTG: FC vs plate median;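 for all read-outs here: compounds given at plating and again on day 3 over a 6-day differentiation from ENR+CV stem-cell-enriched precursors, ATP measured on day 6, plate median as control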
[1] = tested on: ENR+CD organoids (ISC to Paneth cell differentiation); experiment: Primary screen: CCh-stimulated lysozyme secretion LYZ.S, 2.5-D 384-well ENR+CD organoid differentiation; type: cell-based, mouse; conditions: primary screen; for Dose.FC.LYZ.S: FC vs plate median
Source text: (§1) High-throughput screening.

[2] = tested on: ENR+CD organoids (ISC to Paneth cell differentiation); experiment: Primary screen: basal (non-stimulated) lysozyme secretion LYZ.NS, 2.5-D 384-well ENR+CD organoid differentiation; type: cell-based, mouse; conditions: primary screen; for Z.LYZ.NS: standard z score; for Dose.FC.LYZ.NS: FC vs plate median
Source text: as §1

I-BET151 (GSK1210151A)
Dose.FC.CTG (log2 fold change) (ENR+CD organoids; dose 0.08 uM): −0.016 | Z.CTG (standard z score) (ENR+CD organoids; dose 0.08 uM): −0.039 | Dose.FC.CTG (log2 fold change) (ENR+CD organoids; dose 0.40 uM): −0.174 | Z.CTG (standard z score) (ENR+CD organoids; dose 0.40 uM): −0.415 | Dose.FC.CTG (log2 fold change) (ENR+CD organoids; dose 2.00 uM): −0.502 | Z.CTG (standard z score) (ENR+CD organoids; dose 2.00 uM): −1.200 | Dose.FC.CTG (log2 fold change) (ENR+CD organoids; dose 10.00 uM): −0.935 | Z.CTG (standard z score) (ENR+CD organoids; dose 10.00 uM): −2.233 | Dose.FC.LYZ.S (log2 fold change) ([1]; dose 0.08 uM): −0.242 | Dose.FC.LYZ.S (log2 fold change) ([1]; dose 0.40 uM): −0.344 | Dose.FC.LYZ.S (log2 fold change) ([1]; dose 2.00 uM): −0.416 | Dose.FC.LYZ.S (log2 fold change) ([1]; dose 10.00 uM): −0.408 | Dose.FC.LYZ.NS (log2 fold change) ([2]; dose 0.08 uM): −0.116 | Z.LYZ.NS (standard z score) ([2]; dose 0.08 uM): −1.010 | Dose.FC.LYZ.NS (log2 fold change) ([2]; dose 0.40 uM): −0.248 | Z.LYZ.NS (standard z score) ([2]; dose 0.40 uM): −2.159 | Dose.FC.LYZ.NS (log2 fold change) ([2]; dose 2.00 uM): −0.299 | Z.LYZ.NS (standard z score) ([2]; dose 2.00 uM): −2.601 | Dose.FC.LYZ.NS (log2 fold change) ([2]; dose 10.00 uM): −0.284 | Z.LYZ.NS (standard z score) ([2]; dose 10.00 uM): −2.473

Ifenprodil Tartrate
Dose.FC.CTG (log2 fold change) (ENR+CD organoids; dose 0.08 uM): 0.102 | Z.CTG (standard z score) (ENR+CD organoids; dose 0.08 uM): 0.243 | Dose.FC.CTG (log2 fold change) (ENR+CD organoids; dose 0.40 uM): 0.111 | Z.CTG (standard z score) (ENR+CD organoids; dose 0.40 uM): 0.265 | Dose.FC.CTG (log2 fold change) (ENR+CD organoids; dose 2.00 uM): −0.003 | Z.CTG (standard z score) (ENR+CD organoids; dose 2.00 uM): −0.008 | Dose.FC.CTG (log2 fold change) (ENR+CD organoids; dose 10.00 uM): −1.034 | Z.CTG (standard z score) (ENR+CD organoids; dose 10.00 uM): −2.471 | Dose.FC.LYZ.S (log2 fold change) ([1]; dose 0.08 uM): 0.050 | Dose.FC.LYZ.S (log2 fold change) ([1]; dose 0.40 uM): 0.017 | Dose.FC.LYZ.S (log2 fold change) ([1]; dose 2.00 uM): −0.023 | Dose.FC.LYZ.S (log2 fold change) ([1]; dose 10.00 uM): −0.301 | Dose.FC.LYZ.NS (log2 fold change) ([2]; dose 0.08 uM): 0.056 | Z.LYZ.NS (standard z score) ([2]; dose 0.08 uM): 0.492 | Dose.FC.LYZ.NS (log2 fold change) ([2]; dose 0.40 uM): −0.019 | Z.LYZ.NS (standard z score) ([2]; dose 0.40 uM): −0.161 | Dose.FC.LYZ.NS (log2 fold change) ([2]; dose 2.00 uM): 0.123 | Z.LYZ.NS (standard z score) ([2]; dose 2.00 uM): 1.068 | Dose.FC.LYZ.NS (log2 fold change) ([2]; dose 10.00 uM): −0.219 | Z.LYZ.NS (standard z score) ([2]; dose 10.00 uM): −1.909

Maraviroc
Dose.FC.CTG (log2 fold change) (ENR+CD organoids; dose 0.08 uM): −0.084 | Dose.FC.CTG (log2 fold change) (ENR+CD organoids; dose 0.40 uM): 0.079 | Dose.FC.CTG (log2 fold change) (ENR+CD organoids; dose 2.00 uM): −0.009 | Dose.FC.CTG (log2 fold change) (ENR+CD organoids; dose 10.00 uM): 0.139 | Dose.FC.LYZ.S (log2 fold change) ([1]; dose 0.08 uM): 0.054 | Dose.FC.LYZ.S (log2 fold change) ([1]; dose 0.40 uM): 0.195 | Dose.FC.LYZ.S (log2 fold change) ([1]; dose 2.00 uM): 0.005 | Dose.FC.LYZ.S (log2 fold change) ([1]; dose 10.00 uM): 0.077 | Dose.FC.LYZ.NS (log2 fold change) ([2]; dose 0.08 uM): 0.047 | Z.LYZ.NS (standard z score) ([2]; dose 0.08 uM): 0.411 | Dose.FC.LYZ.NS (log2 fold change) ([2]; dose 0.40 uM): 0.041 | Z.LYZ.NS (standard z score) ([2]; dose 0.40 uM): 0.358 | Dose.FC.LYZ.NS (log2 fold change) ([2]; dose 2.00 uM): 0.031 | Z.LYZ.NS (standard z score) ([2]; dose 2.00 uM): 0.269 | Dose.FC.LYZ.NS (log2 fold change) ([2]; dose 10.00 uM): 0.087 | Z.LYZ.NS (standard z score) ([2]; dose 10.00 uM): 0.759

OG-L002
Z.CTG (ENR+CD organoids; dose 0.08 uM): 0.225 | Z.CTG (ENR+CD organoids; dose 0.40 uM): 0.329 | Z.CTG (ENR+CD organoids; dose 2.00 uM): 0.306 | Z.CTG (ENR+CD organoids; dose 10.00 uM): 0.225 | Dose.FC.CTG (ENR+CD organoids; dose 0.08 uM): 0.094 log2 fold change | Dose.FC.CTG (ENR+CD organoids; dose 0.40 uM): 0.138 log2 fold change | Dose.FC.CTG (ENR+CD organoids; dose 2.00 uM): 0.128 log2 fold change | Dose.FC.CTG (ENR+CD organoids; dose 10.00 uM): 0.094 log2 fold change | Dose.FC.LYZ.S ([1]; dose 0.08 uM): 0.023 log2 fold change | Dose.FC.LYZ.S ([1]; dose 0.40 uM): 0.026 log2 fold change | Dose.FC.LYZ.S ([1]; dose 2.00 uM): −0.001 log2 fold change | Dose.FC.LYZ.S ([1]; dose 10.00 uM): −0.084 log2 fold change | Z.LYZ.NS ([2]; dose 0.08 uM): −0.001 | Z.LYZ.NS ([2]; dose 0.40 uM): −0.097 | Z.LYZ.NS ([2]; dose 2.00 uM): 0.182 | Z.LYZ.NS ([2]; dose 10.00 uM): −0.790 | Dose.FC.LYZ.NS ([2]; dose 0.08 uM): 0.000 log2 fold change | Dose.FC.LYZ.NS ([2]; dose 0.40 uM): −0.011 log2 fold change | Dose.FC.LYZ.NS ([2]; dose 2.00 uM): 0.021 log2 fold change | Dose.FC.LYZ.NS ([2]; dose 10.00 uM): −0.091 log2 fold change

Reference: patent publication US20220323406A1, “METHODS AND COMPOSITIONS FOR DIFFERENTIATING STEM CELLS” (Massachusetts Institute of Technology, priority 2019, published 2022)
